From US6849593B1, “Bifidogenic peptides” (Pharis Biotec GmbH, priority 1997, dated 2005)

System: Bifidobacterium bifidum ATCC 29521
Assay: bifidogenic activity: growth test with bifidobacteria in combination with a growth test with E. coli
Assay type: cell-based
Conditions: growth of Bifidobacterium bifidum (50% Elliker broth, anaerobic, 37° C., 16 hours) relative to growth of E. coli K12 (3 g/l tryptic soy broth, 16 hours); desalted HPLC fractions from pepsin-treated human milk
Experimental: This object is achieved by peptides having the features of claim 1. […]
For each assay, cultures of E. coli K12 were freshly inoculated in tryptic soy broth (Sigma, Deisenhofen, Germany, order No. T8907) (Difco Manual, 10th ed., p. 1027). […] The photometric absorption of the inoculum was 0.05, measured at 500 nm. The growth of the bacteria under the influence of the peptides was also photometrically determined in an ELISA reader after 16 hours and manually determined by microscopy.
For each assay, cultures of Bifidobacterium bifidum ATCC 29521 were freshly inoculated in Elliker broth (Difco, Detroit, USA) (tryptone 20 g, yeast extract 5 g, gelatin 2.5 g, dextrose 5 g, lactose 5 g, saccharose 5 g, sodium chloride 4 g, sodium acetate 1.5 g, ascorbic acid 0.5 g). […] The photometric absorption of the inoculum was 0.05, measured at 550 nm. The growth of the bacteria under the influence of the peptides was also photometrically determined in an ELISA reader after 16 hours and manually determined by microscopy. […]

Sequence | bifidogenic activity
GRRRRSVQWCAVSQPEATKCFQWQRNMRKVRGPPVSCIKRDSPICCIQA (GRRRSVQWCAVSQPEATKCFQWQRNMRKVRGPPVSCIKRDSPIQCIQA) [neutrophile lactoferrin-20-67, bifidogenic component of fraction 10, peptide isolated from pepsin-treated human milk] | bifidogenic
YQRRPAIAINNPYVPRTYYANPAVVRPHAQIPQRQYLPNSHPPTVVRRPLPSF (YQRRPAIAINNPYVPRTYYANPAVVRPHAQIPQRQYLPNSHPPTVVRRPNLHPSF) [casein K-63-117, pure bifidogenic component of fraction 9, peptide isolated from pepsin-treated human milk] | bifidogenic
